{"source": "patent US6518262B1", "about": "“22R-hydroxycholesta-8, 14-diene derivatives for the inhibition of meiosis” (Akzo Nobel N.V., priority 1999, dated 2003)", "key": {"[1]": {"system": "denuded oocytes (DO)", "assay": "Oocyte assay, antagonistic testing, inhibition of FF-Mas induced maturation in denuded oocytes (DO assay)", "format": "cell-based, mice (B6D2-F1, strain C57BL×DBA)", "conditions": "FF-Mas 5 μM, compound tested 5 μM, control (FF-Mas alone) in brackets", "method": "(§1) The meiosis inhibiting activity of the 22R-hydroxycholesta-8,14-diene derivatives of the invention is measured in an in vitro oocyte assay as the ability to inhibit the FF-Mas or 22S-hydroxy-FF-Mas induced maturation, in hypoxanthine media, in denuded oocytes (DO) or cumulus enclosed oocytes (CEO), respectively. Natural resumption of meiosis can be mimicked in vitro by addition of FF-Mas or other agonists to the culture medium containing hypoxanthine. The antagonistic activity of the compounds is measured as the ability to inhibit the FF-Mas or 22S-hydroxy-FF-Mas induced oocyte maturation in denuded oocytes or cumulus enclosed oocytes, respectively, in vitro. Ovaries are obtained from immature female mice (B6D2-F1, strain C57BL×DBA). At the age of 19, 20 or 21 days the mice are injected subcutaneously with a single dose of 20 IU follicle stimulating hormone (Humegon, Organon, The Netherlands) in saline. Forty-eight hours after follicle stimulating hormone injection mice are killed by cervical dislocation. The ovaries are removed, freed of extraneous tissue and placed in a multidish containing 0.5 ml preparation medium at 37° C. L-15 Leibovitz medium (Gibco, pH 7.3±0.1) supplemented with bovine serum albumin (3 mg·ml^−1), L-glutamine (0.23 mM), sodium pyruvate (2 mM) and hypoxanthine (4 mM) is used as preparation medium. The antral follicles of the ovaries are punctured under a dissecting microscope using two 27-gauge needles attached to two 1 ml syringes. […] At t=0 the number of oocytes with intact germinal vesicles (GV) or germinal vesicle break-down (GVBD) is counted under an inverted microscope with differential interference contrast equipment. […] At the end of the culture period the number of oocytes with GV or GVBD per group is counted. For statistical analysis the percentage germinal vesicle breakdown is calculated for each group in one block. These percentages are subjected to arcsin transformation, and differences between control and test compounds are analyzed by an ANOVA test for a randomized block design. […]"}, "[2]": {"system": "cumulus enclosed oocytes (CEO)", "assay": "Oocyte assay, antagonistic testing, inhibition of 22S-hydroxy-FF-Mas induced maturation in cumulus enclosed oocytes (CEO assay)", "format": "cell-based, mice (B6D2-F1, strain C57BL×DBA)", "conditions": "22S-hydroxy-FF-Mas 5 μM, control (22S-hydroxy-FF-Mas alone) in brackets", "method": "as §1"}, "[3]": {"system": "naturally occurring meiosis activating substance", "conditions": "as disclosed in WO98/28323; cited from earlier work"}, "[4]": {"target": "T1, LXRα receptor (Homo sapiens, UniProt Q13133)", "T1 sequence (Q13133 1-447)": "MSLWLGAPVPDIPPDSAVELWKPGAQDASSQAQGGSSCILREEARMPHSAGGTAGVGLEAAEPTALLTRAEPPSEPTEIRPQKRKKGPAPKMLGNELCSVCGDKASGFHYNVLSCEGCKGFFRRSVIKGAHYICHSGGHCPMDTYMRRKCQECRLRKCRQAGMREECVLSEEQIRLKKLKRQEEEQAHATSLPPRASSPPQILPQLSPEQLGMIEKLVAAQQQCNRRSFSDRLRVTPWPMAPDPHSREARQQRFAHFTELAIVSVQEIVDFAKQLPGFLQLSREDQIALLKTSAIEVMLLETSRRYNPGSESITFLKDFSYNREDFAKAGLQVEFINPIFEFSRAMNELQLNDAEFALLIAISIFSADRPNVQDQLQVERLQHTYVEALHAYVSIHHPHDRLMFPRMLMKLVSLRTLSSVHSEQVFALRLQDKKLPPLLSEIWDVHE", "conditions": "among a series of hydroxycholestane derivatives; cited from earlier work"}}, "data": [{"smiles": "CC(C)CC[C@@H](O)[C@@H](C)[C@H]1CC[C@H]2[C@@H]3CC=C4C[C@@H](O)CC[C@]4(C)[C@H]3CC[C@]12C", "note": "[22R-hydroxycholesterol]", "values": [{"measurement": "% GVBD DO assay exp.", "setting": "[1]", "value": "38(89) %"}, {"measurement": "% GVBD CEO assay exp.", "setting": "[2]", "value": "52(89)^4%"}, {"measurement": "antagonist activity (meiosis regulating)", "setting": "[3]", "value": "only weakly active as an antagonist"}, {"measurement": "activation of the LXRα receptor", "setting": "[4]", "value": "most potent activator of the LXRα receptor"}]}]}
